How the values were obtained:
[1] = biological target: T1, CYP26A (P450RAI-1) (Homo sapiens, UniProt O43174); assay: Cell-based inhibition of RA metabolism in CYP26A stably transfected HeLa cells; conditions: stably transfected HeLa cells, [3H]-RA, 3 hours at 37° C.; read-out: P450RAI-1 Whole cell IC50
T1 construct: expressed in transfected cells; host or cells: HeLa
T1 sequence (O43174 1-497): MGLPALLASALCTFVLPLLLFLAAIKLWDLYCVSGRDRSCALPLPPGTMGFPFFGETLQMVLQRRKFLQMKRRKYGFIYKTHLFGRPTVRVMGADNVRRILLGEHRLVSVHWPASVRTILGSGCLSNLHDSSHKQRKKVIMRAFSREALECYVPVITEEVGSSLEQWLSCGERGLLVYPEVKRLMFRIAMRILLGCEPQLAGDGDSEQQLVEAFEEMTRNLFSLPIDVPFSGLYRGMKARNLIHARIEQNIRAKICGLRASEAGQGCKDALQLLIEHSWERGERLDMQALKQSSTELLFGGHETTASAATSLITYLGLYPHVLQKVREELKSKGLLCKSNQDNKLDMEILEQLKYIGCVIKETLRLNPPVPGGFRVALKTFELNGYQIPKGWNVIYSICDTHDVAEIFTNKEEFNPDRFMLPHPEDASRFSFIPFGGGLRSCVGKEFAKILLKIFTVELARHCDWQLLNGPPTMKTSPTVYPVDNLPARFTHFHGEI
Procedure: (§1) In brief, CYP26A or CYP26B can be stably transfected into HeLa cells. Exponentially growing cells are harvested by incubating in trypsin. Cells are then washed and plated in a 48-well plate at 5×10^5 cells in 0.2 ml MEM medium containing 10% FBS and 0.05 μCi [^3H]-RA in the presence or absence of increasing concentrations of the test compounds. The compounds are diluted in 100% DMSO and then added in triplicate wells at either 10, 1 or 0.1 μM final concentration. As a positive control for RA metabolism inhibition, cells are also incubated with ketoconazole at 100, 10 and 1 μM. Cells are incubated for 3 hours at 37 degrees C. The retinoids are then extracted using the procedure of Bligh et al., Canadian Journal of Biochemistry 37: 911-917 (1959), modified by using methylenechloride instead of chloroform. This publication by Bligh et al., is specifically incorporated herein by reference. The water soluble radioactivity is quantified using a β scintillation counter, and IC50 values are determined.
(§2) CYP26A and CYP26B stably transfected HeLa cells were maintained in 100 mm tissue culture dishes in MEM medium containing 10% FBS and 100 μg/ml hygromycin.
(§3) Exponentially growing cells were harvested by incubating in trypsin. Cells were then washed with 1×PBS and plated in a 48-well plate at 5×10^5 cells in 0.2 ml MEM medium containing 10% FBS and 0.05 μCi [^3H]-RA in the presence or absence of increasing concentrations of the test compounds. The compounds were diluted in 100% DMSO and then added to triplicate wells at final concentrations of 10, 1 or 0.1 μM. As a positive control for RA metabolism inhibition, cells were also incubated with ketoconazole at 100, 10 and 1 μM. Cells were incubated for 3 hours at 37° C. The retinoids were then extracted using a modified Bligh and Dyer procedure (Bligh and Dyer, supra (1959)), in which methylene-chloride, as opposed to chloroform, was used, and the aqueous soluble radioactivity quantified using a β-scintillation counter. ID50 values represent the concentration of inhibitor required to inhibit RA metabolism by 50 percent and were derived manually from log-transformed data.

[2] = biological target: T2, CYP26B (P450RAI-2) (Homo sapiens, UniProt Q9NR63); assay: Cell-based inhibition of RA metabolism in CYP26B stably transfected HeLa cells; conditions: stably transfected HeLa cells, [3H]-RA, 3 hours at 37° C.; read-out: P450RAI-2 Whole cell IC50
T2 construct: expressed in transfected cells; host or cells: HeLa
T2 sequence (Q9NR63 1-512): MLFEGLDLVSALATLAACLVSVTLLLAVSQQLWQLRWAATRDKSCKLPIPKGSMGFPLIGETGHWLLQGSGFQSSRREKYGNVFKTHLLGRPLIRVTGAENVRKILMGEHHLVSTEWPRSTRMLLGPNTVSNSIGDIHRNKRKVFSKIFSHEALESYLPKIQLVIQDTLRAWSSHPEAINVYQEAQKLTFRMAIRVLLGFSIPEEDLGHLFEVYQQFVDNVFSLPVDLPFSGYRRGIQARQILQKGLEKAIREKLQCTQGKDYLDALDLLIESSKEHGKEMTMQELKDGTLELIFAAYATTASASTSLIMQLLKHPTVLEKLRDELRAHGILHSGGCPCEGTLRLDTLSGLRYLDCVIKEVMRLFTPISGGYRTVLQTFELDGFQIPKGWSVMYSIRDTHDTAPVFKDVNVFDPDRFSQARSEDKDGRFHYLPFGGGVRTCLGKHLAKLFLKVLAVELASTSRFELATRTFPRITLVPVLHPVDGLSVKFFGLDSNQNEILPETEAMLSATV
Procedure: as §1, §2, §3

[3] = biological target: T3, RAR α (Homo sapiens, UniProt P10276); assay: RAR α Kd; assay type: binding; conditions: last item of cell EC50/(EFFICACY)/Kd
T3 sequence (P10276 1-462): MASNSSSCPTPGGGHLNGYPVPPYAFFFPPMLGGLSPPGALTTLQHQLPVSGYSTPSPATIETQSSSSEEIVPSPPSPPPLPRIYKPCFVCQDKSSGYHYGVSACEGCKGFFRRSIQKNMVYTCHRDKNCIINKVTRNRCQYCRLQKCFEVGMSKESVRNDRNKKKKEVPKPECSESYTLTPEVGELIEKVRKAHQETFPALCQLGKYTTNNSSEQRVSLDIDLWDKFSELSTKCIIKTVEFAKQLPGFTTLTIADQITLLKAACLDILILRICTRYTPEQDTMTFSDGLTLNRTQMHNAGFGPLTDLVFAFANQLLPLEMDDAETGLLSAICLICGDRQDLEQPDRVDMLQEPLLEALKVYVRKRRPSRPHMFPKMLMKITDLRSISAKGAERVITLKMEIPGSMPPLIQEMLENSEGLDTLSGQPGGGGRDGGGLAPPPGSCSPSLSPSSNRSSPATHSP

[4] = biological target: T4, RAR β (Homo sapiens, UniProt P10826); assay: RAR β Kd; assay type: binding; conditions: last item of cell EC50/(EFFICACY)/Kd
T4 sequence (P10826 1-455): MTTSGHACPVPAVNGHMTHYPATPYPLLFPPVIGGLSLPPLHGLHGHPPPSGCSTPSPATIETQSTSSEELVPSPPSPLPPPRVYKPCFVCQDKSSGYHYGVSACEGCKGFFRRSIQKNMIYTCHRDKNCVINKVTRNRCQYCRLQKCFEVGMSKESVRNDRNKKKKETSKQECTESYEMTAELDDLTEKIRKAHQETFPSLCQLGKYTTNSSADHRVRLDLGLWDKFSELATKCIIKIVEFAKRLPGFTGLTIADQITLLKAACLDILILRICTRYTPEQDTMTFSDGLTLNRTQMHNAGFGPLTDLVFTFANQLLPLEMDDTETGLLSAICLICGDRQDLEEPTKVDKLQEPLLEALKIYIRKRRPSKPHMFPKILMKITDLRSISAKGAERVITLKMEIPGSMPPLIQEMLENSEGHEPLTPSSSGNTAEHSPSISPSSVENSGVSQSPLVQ

[5] = biological target: T5, RAR γ (Homo sapiens, UniProt P13631); assay: RAR γ Kd; assay type: binding; conditions: last item of cell EC50/(EFFICACY)/Kd
T5 sequence (P13631 1-454): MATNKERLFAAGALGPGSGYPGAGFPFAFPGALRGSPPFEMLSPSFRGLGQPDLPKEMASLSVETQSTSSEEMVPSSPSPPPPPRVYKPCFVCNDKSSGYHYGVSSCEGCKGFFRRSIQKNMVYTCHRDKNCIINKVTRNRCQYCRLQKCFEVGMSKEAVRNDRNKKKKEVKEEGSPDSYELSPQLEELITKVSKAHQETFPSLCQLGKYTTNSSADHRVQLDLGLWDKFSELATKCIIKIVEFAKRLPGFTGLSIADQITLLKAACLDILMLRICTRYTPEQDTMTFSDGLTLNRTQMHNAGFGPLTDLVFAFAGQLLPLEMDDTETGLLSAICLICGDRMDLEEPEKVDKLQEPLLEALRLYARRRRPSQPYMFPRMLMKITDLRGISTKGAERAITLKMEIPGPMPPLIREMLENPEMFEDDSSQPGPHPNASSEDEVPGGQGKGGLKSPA

SMILES	IC50 [1]	IC50 [2]	Kd [3]	Kd [4]	Kd [5]
COc1cc(C#Cc2ccc(/C=C/C(=O)O)cc2)cc2c1C(N(C)C1CC1)CCC2(C)C (centres unmarked) [Compound 29, (E)-3-{4-[5-(Cyclopropyl-methyl-amino)-4-methoxy-8,8-dimethyl-5,6,7,8-tetrahydro-naphthalen-2-ylethynyl]-phenyl}-acrylic acid]	0.6 µM	> 10 µM	> 10 µM	> 10 µM	> 10 µM
C#Cc1cc(C#Cc2ccc(CC(=O)O)c(F)c2)cc(C(=O)OC(C)C)c1 [Compound 61, 3-(4-Carboxymethyl-3-fluoro-phenylethynyl)-5-ethynyl-benzoic acid isopropyl ester]	0.22 µM	8.1 µM	> 10 µM	> 10 µM	> 10 µM
CC1(C)CC2(CC2)Oc2c(C3CC3)cc(C#Cc3ccc(C(C)(C)C(=O)O)cc3)cc21 [Compound 2, 2-{4-[(8-Cyclopropyl-3,4-dihydro-4,4-dimethylspiro[2H-1-benzopyran-2,1′-cyclopropane]-6-yl)ethynyl]-phenyl}-2-methyl-propionic acid]	0.03 µM	> 10 µM	0.558 µM	3.44 µM	5.58 µM
Cc1cc2c(cc1C#Cc1ccc(C(C)(C)C(=O)O)cc1)C(C)(C)CCC2N(C)C1CC1 (centres unmarked) [Compound 53, 2-{4-[5-(Cyclopropyl-methyl-amino)-3,8,8-trimethyl-5,6,7,8-tetrahydro-naphthalen-2-ylethynyl]-phenyl}-2-methyl-propionic acid]	0.5 µM	5 µM	> 10 µM	3.91 µM	> 10 µM
CC(C)OC(=O)c1cc(C#Cc2ccc(CC(=O)O)cc2)cc2c1OC(C)(C)CC2(C)C [Compound 18, 6-(4-Carboxymethyl-phenylethynyl)-2,2,4,4-tetramethyl-chroman-8-carboxylic acid isopropyl ester]	0.4 µM	> 10 µM	–	–	–
CN(Cc1cc(C#Cc2ccc(CC(=O)O)cc2)cc2c1OC(C)(C)CC2(C)C)C1CC1 [Compound 6, (4-{8-[(Cyclopropyl-methyl-amino)-methyl]-2,2,4,4-tetramethyl-chroman-6-ylethynyl}phenyl)-acetic acid]	0.06 µM	4 µM	3.41 µM	> 10 µM	> 10 µM
CC(C)OC(=O)c1ccc(C#Cc2ccc(C(C)C(=O)O)cc2)cc1CN(C)C1CC1 (centres unmarked) [Compound 40, 4-[4-(1-Carboxy-ethyl)-phenylethynyl]-2-[(cyclopropyl-methyl-amino)-methyl]-benzoic acid isopropyl ester]	1.3 µM	> 10 µM	> 10 µM	> 10 µM	> 10 µM
CCc1cc(C#Cc2ccc(C(C)(C)C(=O)O)cc2)cc2c1C(N(C)C1CC1)CCC2(C)C (centres unmarked) [Compound 54, 2-{4-[5-(Cyclopropyl-methyl-amino)-4-ethyl-8,8-dimethyl-5,6,7,8-tetrahydro-naphthalen-2-ylethynyl]-phenyl}-2-methyl-propionic acid]	0.2 µM	> 10 µM	1.81 µM	5.09 µM	> 10 µM
CC(C)(C)COC(=O)c1cc(C#Cc2ccc(CC(=O)O)cc2)cc2c1OC(C)(C)CC2(C)C [Compound 19, 6-(4-Carboxymethyl-phenylethynyl)-2,2,4,4-tetramethyl-chroman-8-carboxylic acid 2,2-dimethylpropyl ester]	7 µM	> 10 µM	–	–	–
CC(C(=O)O)c1ccc(C#Cc2cc(C3CC3)c3c(c2)C(C)(C)CCC3N(C)C2CC2)cc1 (centres unmarked) [Compound 49, 2-{4-[4-Cyclopropyl-5-(cyclopropyl-methyl-amino)-8,8-dimethyl-5,6,7,8-tetrahydro-naphthalen-2-ylethynyl]-phenyl}-propionic acid]	0.05 µM	–	5.28 µM	> 10 µM	> 10 µM
CC(C)(C)OC(=O)c1cc(C#Cc2ccc(CC(=O)O)cc2)cc2c1OC(C)(C)CC2(C)C [Compound 20, 6-(4-Carboxymethyl-phenylethynyl)-2,2,4,4-tetramethyl-chroman-8-carboxylic acid tert-butyl ester]	2.9 µM	> 10 µM	–	–	–
CC(C)N(Cc1cc(C(=O)Oc2ccc(CC(=O)O)cc2)cc2c1OC(C)(C)CC2(C)C)C1CC1 [Compound 17, 8-[(Cyclopropyl-isopropyl-amino)-methyl]-2,2,4,4-tetramethyl-chroman-6-carboxylic acid 4-carboxymethyl-phenyl ester]	2.5 µM	> 10 µM	–	–	–

Source: US7468391B2, “Methods for treating retinoid responsive disorders using selective inhibitors of CYP26A and CYP26B” (Allergan, Inc., priority 2003, dated 2008)
